Reference: ChEMBL document CHEMBL5096225 (J Med Chem, 2022)
In brackets after ≈: the same amount, converted by molar mass.

Assay: Solubility of the compound in deionized water
Assay type: physicochemical

SMILES | solubility
O=C(c1cc(O)cc(F)c1)c1cc(O)c(O)c([N+](=O)[O-])c1 | 56 µg/mL (≈ 191 µM)
Cc1ccc(C(=O)c2cc(O)c(O)c([N+](=O)[O-])c2)cc1 [TOLCAPONE] | 45 µg/mL (≈ 165 µM)
